Assay results published in US20060263802A1 (priority 2003, published 2006).
“Also recorded” adds a separate entry of the source.

Tests used:
Type in all cases: binding
[1] = test system: human monoclonal antibody CR57
[2] = test system: human monoclonal antibody CRJB
[3] = test system: human monoclonal antibody CRJA
[4] = test system: human monoclonal antibody CR57; remark: listed apart in the source
[5] = test system: human monoclonal antibody CRJA; remark: listed apart in the source
[6] = test system: human monoclonal antibody CR57; remark: listed apart in the source
[7] = test system: human monoclonal antibody CRJB; remark: listed apart in the source

Sequence | binding of CR57 to 12-, 10- and 8-mer peptides [1] | Binding of CRJB to linear peptide (PEPSCAN-ELISA signal) [2] | Binding of CRJA to linear peptide (PEPSCAN-ELISA signal) [3] | Binding of CR57 (10 μg/ml) to looped/cyclic peptide (PEPSCAN-ELISA signal) [4] | Binding of CRJA (10 μg/ml) to looped/cyclic peptide (PEPSCAN-ELISA signal) [5] | Binding of CR57 to linear peptide (PEPSCAN-ELISA signal) [6] | Binding of CRJB (10 μg/ml) to looped/cyclic peptide (PEPSCAN-ELISA signal) [7] | also measured
ACKLKLCGVL | bound |  |  |  |  |  |  | 
ACKLKLCGVLGL | bound |  |  |  |  |  |  | 
CKLKLCGVLG | bound |  |  |  |  |  |  | 
CKLKLCGVLGLR | bound |  |  |  |  |  |  | 
GACKLKLCGVLG | bound |  |  |  |  |  |  | 
KGACKLKLCGVL | bound |  |  |  |  |  |  | 
KLCGVLGL | bound |  |  |  |  |  |  | 
KLCGVLGLRLMD | bound |  |  |  |  |  |  | 
KLKLCGVL | bound |  |  |  |  |  |  | 
KLKLCGVLGL | bound |  |  |  |  |  |  | 
LKLCGVLG | bound |  |  |  |  |  |  | 
LKLCGVLGLR | bound |  |  |  |  |  |  | 
WMPENPRLGMSCDIF |  | 113 | 97 | 199 | 164 | 88 | 206 | binding of antibody CR57 to looped/cyclic peptide (PEPSCAN OD) [4]: clearly bound; binding of antibody CRJB to looped/cyclic peptide (PEPSCAN OD) [7]: display reactivity; also recorded: clearly bound
WNEILPSKGCLRVGG |  | 136 | 98 |  |  | 102 |  | Binding of CR57 (10 μg/ml) to looped/cyclic peptide (PEPSCAN-ELISA) [4]: 112; Binding of CRJA (10 μg/ml) to looped/cyclic peptide (PEPSCAN-ELISA) [5]: 96; Binding of CRJB (10 μg/ml) to looped/cyclic peptide (PEPSCAN-ELISA) [7]: 98
WSPIDIHHLSCPNNL |  | 106 | 83 | 89 | 151 | 80 | 92 | 
YCSTNHDYTIWMPEN |  | 92 | 76 | 65 | 468 | 47 | 71 | binding of antibody CRJA to looped/cyclic peptide (PEPSCAN OD) [5]: clearly bound
YDRSLHSRVFPSGKC |  | 818 | 1027 | 112 | 86 | 364 | 72 | binding of antibody CRJB to linear peptide (PEPSCAN OD) [2]: clearly bound; binding of antibody CRJA to linear peptide (PEPSCAN OD) [3]: clearly bound; binding of antibody CR57 to linear peptide (PEPSCAN OD) [6]: bound
YEESLHNPYPDYRWL |  | 106 | 87 | 98 | 84 | 58 | 50 | 
YILAIKMNGFTCTGV |  | 107 | 45 | 55 | 45 | 47 | 49 | 
YKSLKGACKLKLCGV |  | 112 | 79 |  |  | 80 |  | Binding of CR57 (10 μg/ml) to looped/cyclic peptide (PEPSCAN-ELISA) [4]: 96; Binding of CRJA (10 μg/ml) to looped/cyclic peptide (PEPSCAN-ELISA) [5]: 71; Binding of CRJB (10 μg/ml) to looped/cyclic peptide (PEPSCAN-ELISA) [7]: 82
YKSVRTWNEILPSKG |  | 137 | 113 |  |  | 66 |  | Binding of CR57 (10 μg/ml) to looped/cyclic peptide (PEPSCAN-ELISA) [4]: 117; Binding of CRJA (10 μg/ml) to looped/cyclic peptide (PEPSCAN-ELISA) [5]: 132; Binding of CRJB (10 μg/ml) to looped/cyclic peptide (PEPSCAN-ELISA) [7]: 94
YMELKVGYILAIKMN |  | 114 | 96 | 93 | 76 | 78 | 83 | 
YNWKMAGDPRYEESL |  | 118 | 110 | 89 | 98 | 83 | 89 | 
YPDYRWLRTVKTTKE |  | 97 | 88 | 88 | 92 | 72 | 73 | 
YRWLRTVKTTKESLV |  | 117 | 68 | 69 | 58 | 46 | 70 | 
YTIFNKTLMEADAHY |  | 147 | 90 |  |  | 104 |  | Binding of CR57 (10 μg/ml) to looped/cyclic peptide (PEPSCAN-ELISA) [4]: 119; Binding of CRJA (10 μg/ml) to looped/cyclic peptide (PEPSCAN-ELISA) [5]: 108; Binding of CRJB (10 μg/ml) to looped/cyclic peptide (PEPSCAN-ELISA) [7]: 79
YTILDKLGPWSPIDI |  | 114 | 93 | 75 | 91 | 48 | 73 | 
YTIWMPENPRLGMSC |  | 132 | 111 | 191 | 93 | 97 | 132 | binding of antibody CR57 to looped/cyclic peptide (PEPSCAN OD) [4]: clearly bound
YTNFVGYVTTTFKRK |  | 104 | 76 | 71 | 72 | 51 | 90 | 
YVTTTFKRKHFRPTP |  | 106 | 84 | 146 | 137 | 85 | 111 | 
